Consider 2 compounds from patent US12297203B2, “Pyrrolopyrimidine ITK inhibitors” (ACLARIS THERAPEUTICS, INC., priority 2018, dated 2025).

Assay [1] deals with JAK1/3 phosphorylation of its substrate, STAT5, at Y694. The experiment in a line: JAK1/3 target modulation assay (IL-2 stimulated STAT5 Y694 phosphorylation in PBMC). The class given is cell-based. The note with it: Homo sapiens, PBMC, Primary human peripheral blood mononuclear cells, IL-2 25 ng/mL; read-out: IL2-STAT5 Inh. IC50. Put shortly: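 Human PBMCs preincubated with compound for 1 h at 37 °C, then stimulated with IL-2 (25 ng/mL final) for 5 min. Cells were lysed and phospho-STAT5a,b (Y694) measured by MSD electrochemiluminescence immunoassay, single-plex or multiplex with total STAT5a,b.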

In another assay the target is JAK3 (Homo sapiens (Human), UniProt P52333). The experiment in a line: JAK3 enzyme activity assay (Caliper mobility shift). The class given is biochemical. The note with it: ATP at Km level; read-out: JAK3 Inh. IC50. Put shortly:
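Caliper mobility-shift assay with 2.5 nM JAK3, […] and […] (Km level) in 20 mM HEPES pH 7.5, 10 mM MgCl2, 0.01% BSA, 0.0005% Tween-20, 2% DMSO. 11-point dose-response from […] 0.34 nM; IC50 by 4-parameter logistic fit of product/substrate signal.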

In a further assay the target is ITK (Homo sapiens (Human), UniProt Q08881). As to the kind of experiment: ITK inhibitor binding potency (LanthaScreen competitive binding assay). The note with it: read-out: ITK Inh. IC50. Put shortly:
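TR-FRET tracer displacement: 10 nM GST-ITK, 2 nM Eu-anti-GST, 50 nM tracer-236 in HEPES pH 7.5, MgCl2, 2% DMSO; 11 points, 20 µM–0.34 nM. Run with or without 2 h compound–ITK preincubation before tracer; IC50 by 4-parameter fit of emission ratio.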

In assay [2] the test system is ITK phosphorylation of its substrate, PLCγ1, at Y783. As to the kind of experiment: ITK target modulation assay (PLCγ1 Y783 phosphorylation, anti-CD3 stimulated Jurkat T cells). Conditions: Homo sapiens, Jurkat, anti-CD3 Dynabeads stimulation, read-out: PLC-γ Inh. IC50. The class given is cell-based. Summed up:
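Jurkat cells (400,000/well) were preincubated with compound for 1 h at 37 °C (0.1% DMSO final), then stimulated with anti-CD3 Dynabeads (bead:cell 2:1). Hypotonic lysates were dot-blotted and probed for phospho-PLCγ1 Y783 and total PLCγ1, with quantification by dual-channel infrared imaging.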

Sequence of JAK3 (P52333 781-1124): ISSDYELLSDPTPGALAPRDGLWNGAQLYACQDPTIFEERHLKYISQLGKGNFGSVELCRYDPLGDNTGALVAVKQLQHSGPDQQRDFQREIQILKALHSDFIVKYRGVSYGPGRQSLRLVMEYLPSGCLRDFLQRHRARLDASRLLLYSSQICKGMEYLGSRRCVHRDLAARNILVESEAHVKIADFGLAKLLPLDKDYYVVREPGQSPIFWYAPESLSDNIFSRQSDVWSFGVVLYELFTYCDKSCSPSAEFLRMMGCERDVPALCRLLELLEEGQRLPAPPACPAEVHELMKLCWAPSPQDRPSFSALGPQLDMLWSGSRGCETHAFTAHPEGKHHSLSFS
Sequence of ITK (Q08881 whole entry): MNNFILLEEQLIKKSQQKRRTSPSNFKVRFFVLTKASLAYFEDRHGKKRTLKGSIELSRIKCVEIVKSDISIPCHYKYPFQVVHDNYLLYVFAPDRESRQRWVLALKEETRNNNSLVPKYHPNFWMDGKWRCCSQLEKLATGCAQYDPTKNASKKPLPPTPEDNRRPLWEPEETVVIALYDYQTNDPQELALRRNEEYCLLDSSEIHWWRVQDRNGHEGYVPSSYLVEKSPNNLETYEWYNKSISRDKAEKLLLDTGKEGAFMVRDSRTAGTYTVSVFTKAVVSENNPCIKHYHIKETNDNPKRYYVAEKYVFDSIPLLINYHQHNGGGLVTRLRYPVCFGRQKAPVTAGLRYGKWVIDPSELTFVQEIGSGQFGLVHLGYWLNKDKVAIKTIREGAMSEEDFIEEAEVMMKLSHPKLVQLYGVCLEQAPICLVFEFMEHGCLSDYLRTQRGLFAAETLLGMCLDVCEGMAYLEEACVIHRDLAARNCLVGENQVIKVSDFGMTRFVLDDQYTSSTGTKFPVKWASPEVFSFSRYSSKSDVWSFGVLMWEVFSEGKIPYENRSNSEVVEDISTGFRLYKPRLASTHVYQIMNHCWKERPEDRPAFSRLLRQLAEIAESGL

In the case of `C=CC(=O)N1CCC(Nc2ccnc3[nH]cc(C(=O)C4CC4)c23)CC1` [Example 10, 1-(4-((3-(cyclopropanecarbonyl)-1H-pyrrolo[2,3-b]pyridin-4-yl)amino)piperidin-1-yl)prop-2-en-1-one], the IC50 in assay [1] was over 1000 nM; on JAK3 it was over 100 nM; at ITK, over 100 nM; in assay [2], over 1000 nM.
As for `C=CC(=O)N1C[C@H](Nc2ncnc3[nH]cc([C@H]4CC4(F)F)c23)CC[C@@H]1C(C)C` (single isomer, unassigned) [Example 63], the IC50 in assay [1] was over 1000 nM; on JAK3 it was over 100 nM; at ITK, over 100 nM; in assay [2], over 1000 nM.
